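Compound exposure: 48 hours, 5 concentrations, 96-well plates. GI50 is the concentration that inhibits growth by half. TGI denotes the concentration required for complete inhibition of growth.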
Legend:
Assay in all cases: NCI anticancer screen, dose series, 48 h
T-47D breast = test system: T-47D breast
MDA-MB-231 breast = test system: MDA-MB-231 breast
SK-MEL-2 melanoma = test system: SK-MEL-2 melanoma
LOX IMVI melanoma = test system: LOX IMVI melanoma
SF-295 CNS = test system: SF-295 CNS
RXF 393 renal = test system: RXF 393 renal
PC-3 prostate = test system: PC-3 prostate
HCC-2998 colon = test system: HCC-2998 colon
UO-31 renal = test system: UO-31 renal
EKVX NSCLC = test system: EKVX NSCLC
COLO 205 colon = test system: COLO 205 colon
786-0 renal = test system: 786-0 renal
NCI-H522 lung = test system: NCI-H522 lung
MCF7 breast = test system: MCF7 breast
HL-60(TB) leukemia = test system: HL-60(TB) leukemia
RPMI-8226 leukemia = test system: RPMI-8226 leukemia
HS 578T breast = test system: HS 578T breast
U251 CNS = test system: U251 CNS
HOP-62 NSCLC = test system: HOP-62 NSCLC
NCI/ADR-RES ovarian = test system: NCI/ADR-RES ovarian
M14 melanoma = test system: M14 melanoma
OVCAR-4 ovarian = test system: OVCAR-4 ovarian
ACHN renal = test system: ACHN renal
CCRF-CEM leukemia = test system: CCRF-CEM leukemia
IGROV1 ovarian = test system: IGROV1 ovarian
UACC-62 melanoma = test system: UACC-62 melanoma
DU-145 prostate = test system: DU-145 prostate
UACC-257 melanoma = test system: UACC-257 melanoma
HCT-116 colon = test system: HCT-116 colon
HOP-92 NSCLC = test system: HOP-92 NSCLC
NCI-H226 lung = test system: NCI-H226 lung
OVCAR-5 ovarian = test system: OVCAR-5 ovarian
A549 NSCLC = test system: A549 NSCLC
NCI-H23 lung = test system: NCI-H23 lung
TK-10 renal = test system: TK-10 renal
SN12C renal = test system: SN12C renal
HT29 colon = test system: HT29 colon
BT-549 breast = test system: BT-549 breast
SNB-75 CNS = test system: SNB-75 CNS
MOLT-4 leukemia = test system: MOLT-4 leukemia
SF-539 CNS = test system: SF-539 CNS
MDA-MB-435 = test system: MDA-MB-435
SK-MEL-5 melanoma = test system: SK-MEL-5 melanoma
A498 renal = test system: A498 renal
SK-MEL-28 melanoma = test system: SK-MEL-28 melanoma
SNB-19 CNS = test system: SNB-19 CNS
HCT-15 colon = test system: HCT-15 colon
SW-620 colon = test system: SW-620 colon
SF-268 CNS = test system: SF-268 CNS
OVCAR-8 ovarian = test system: OVCAR-8 ovarian
MALME-3M melanoma = test system: MALME-3M melanoma
KM12 colon = test system: KM12 colon
OVCAR-3 ovarian = test system: OVCAR-3 ovarian
NCI-H460 lung = test system: NCI-H460 lung
SK-OV-3 ovarian = test system: SK-OV-3 ovarian
SR leukemia = test system: SR leukemia
CAKI-1 renal = test system: CAKI-1 renal
K-562 leukemia = test system: K-562 leukemia

## COc1ccc(-n2c(-c3ccc(NC(=O)CCCl)cc3)nnc2-c2cc(OC)c(OC)c(OC)c2)cc1
T-47D breast
  GI50: 3.01 µM
  TGI: 14 µM
MDA-MB-231 breast
  GI50: 3.56 µM
  TGI: > 14.3 µM
SK-MEL-2 melanoma
  GI50: 3.01 µM
  TGI: 7.16 µM
LOX IMVI melanoma
  GI50: 4.28 µM
  TGI: > 14.3 µM
SF-295 CNS
  GI50: 5.02 µM
  TGI: > 14.3 µM
RXF 393 renal
  GI50: 2.44 µM
  TGI: 5.02 µM
PC-3 prostate
  GI50: 4.45 µM
  TGI: > 14.3 µM
HCC-2998 colon
  GI50: 3.05 µM
  TGI: 7.07 µM
UO-31 renal
  GI50: 1.94 µM
  TGI: 4.37 µM
EKVX NSCLC
  GI50: 3 µM
  TGI: > 14.3 µM
COLO 205 colon
  GI50: 2.02 µM
  TGI: 4.75 µM
786-0 renal
  GI50: 12.5 µM
  TGI: > 14.3 µM
NCI-H522 lung
  GI50: 4.14 µM
  TGI: > 14.3 µM
MCF7 breast
  GI50: 3.15 µM
  TGI: > 14.3 µM
HL-60(TB) leukemia
  GI50: 1.9 µM
  TGI: 6.02 µM
RPMI-8226 leukemia
  GI50: 2.85 µM
  TGI: 8.49 µM
HS 578T breast
  GI50: 3.89 µM
  TGI: 12.6 µM
U251 CNS
  GI50: 3.69 µM
  TGI: 13.5 µM
HOP-62 NSCLC
  GI50: 3.49 µM
  TGI: 13.4 µM
NCI/ADR-RES ovarian
  GI50: 4.55 µM
  TGI: > 14.3 µM
M14 melanoma
  GI50: 4.27 µM
  TGI: > 14.3 µM
OVCAR-4 ovarian
  GI50: 4.1 µM
  TGI: > 14.3 µM
ACHN renal
  GI50: 2.21 µM
  TGI: 8.4 µM
CCRF-CEM leukemia
  GI50: 4.53 µM
  TGI: > 14.3 µM
IGROV1 ovarian
  GI50: 2.9 µM
  TGI: > 14.3 µM
UACC-62 melanoma
  GI50: 2.54 µM
  TGI: 6.92 µM
DU-145 prostate
  GI50: 2.77 µM
  TGI: 8.67 µM
UACC-257 melanoma
  GI50: 6.23 µM
  TGI: > 14.3 µM
HCT-116 colon
  GI50: 2.81 µM
  TGI: 8.54 µM
HOP-92 NSCLC
  GI50: 4.1 µM
  TGI: > 14.3 µM
NCI-H226 lung
  GI50: 10.8 µM
  TGI: > 14.3 µM
OVCAR-5 ovarian
  GI50: 6.85 µM
  TGI: > 14.3 µM
A549 NSCLC
  GI50: 3.89 µM
  TGI: 11.2 µM
NCI-H23 lung
  GI50: 3.66 µM
  TGI: > 14.3 µM
TK-10 renal
  GI50: 4.97 µM
  TGI: 11.9 µM
SN12C renal
  GI50: 7.33 µM
  TGI: > 14.3 µM
HT29 colon
  GI50: 3.03 µM
  TGI: 11.2 µM
BT-549 breast
  GI50: 3.14 µM
  TGI: 13.8 µM
SNB-75 CNS
  GI50: 3.46 µM
  TGI: > 14.3 µM
MOLT-4 leukemia
  GI50: 3.4 µM
  TGI: 10.6 µM
SF-539 CNS
  GI50: 3.04 µM
  TGI: 10.3 µM
MDA-MB-435
  GI50: 4.4 µM
  TGI: > 14.3 µM
SK-MEL-5 melanoma
  GI50: 3.46 µM
  TGI: 10.3 µM
A498 renal
  GI50: 3.82 µM
  TGI: 12.8 µM
SK-MEL-28 melanoma
  GI50: 3.56 µM
  TGI: 14 µM
SNB-19 CNS
  GI50: 4.33 µM
  TGI: > 14.3 µM
HCT-15 colon
  GI50: 3.68 µM
  TGI: > 14.3 µM
SW-620 colon
  GI50: 4.55 µM
  TGI: > 14.3 µM
SF-268 CNS
  GI50: 4.09 µM
  TGI: > 14.3 µM
OVCAR-8 ovarian
  GI50: 7.87 µM
  TGI: > 14.3 µM
MALME-3M melanoma
  GI50: 4 µM
  TGI: > 14.3 µM
KM12 colon
  GI50: 2.35 µM
  TGI: 7.6 µM
OVCAR-3 ovarian
  GI50: 2.58 µM
  TGI: 7.78 µM
NCI-H460 lung
  GI50: 2.5 µM
  TGI: 7.33 µM
SK-OV-3 ovarian
  GI50: 4.34 µM
  TGI: > 14.3 µM
SR leukemia
  GI50: 3.12 µM
  TGI: 12.7 µM

## O=C(Nc1cccc(NS(=O)(=O)c2ccc(F)cc2)c1)c1ccc(-c2ccccc2)cc1
T-47D breast
  GI50: 2.28 µM
  TGI: 7.88 µM
MDA-MB-231 breast
  GI50: 3.61 µM
  TGI: 18 µM
SK-MEL-2 melanoma
  GI50: 2.42 µM
  TGI: 7.88 µM
LOX IMVI melanoma
  GI50: 2.54 µM
  TGI: 6.99 µM
SF-295 CNS
  GI50: 2.34 µM
  TGI: 11.8 µM
RXF 393 renal
  GI50: 3.65 µM
  TGI: 20.7 µM
PC-3 prostate
  GI50: 2.81 µM
  TGI: 32.6 µM
HCC-2998 colon
  GI50: 3.48 µM
  TGI: 24.4 µM
UO-31 renal
  GI50: 2.56 µM
  TGI: 16.9 µM
EKVX NSCLC
  GI50: 2.98 µM
  TGI: 65.3 µM
CAKI-1 renal
  GI50: 3.74 µM
  TGI: > 100 µM
COLO 205 colon
  GI50: 3.23 µM
  TGI: 11.4 µM
786-0 renal
  GI50: 3.69 µM
  TGI: > 100 µM
NCI-H522 lung
  GI50: 2.5 µM
  TGI: 13 µM
MCF7 breast
  GI50: 2.71 µM
  TGI: 11.2 µM
HL-60(TB) leukemia
  GI50: 3.37 µM
  TGI: 12.9 µM
RPMI-8226 leukemia
  GI50: 2.31 µM
  TGI: 11.4 µM
HS 578T breast
  GI50: 4.68 µM
  TGI: 52.5 µM
U251 CNS
  GI50: 3.92 µM
  TGI: 19.2 µM
HOP-62 NSCLC
  GI50: 4.66 µM
  TGI: 37.2 µM
NCI/ADR-RES ovarian
  GI50: 2.75 µM
  TGI: 11.3 µM
M14 melanoma
  GI50: 3.63 µM
  TGI: 17.1 µM
OVCAR-4 ovarian
  GI50: 3.72 µM
  TGI: > 100 µM
ACHN renal
  GI50: 3.65 µM
  TGI: 42.7 µM
CCRF-CEM leukemia
  GI50: 3.46 µM
  TGI: > 100 µM
IGROV1 ovarian
  GI50: 4.38 µM
  TGI: 64.9 µM
UACC-62 melanoma
  GI50: 1.63 µM
  TGI: 6.68 µM
DU-145 prostate
  GI50: 3.96 µM
  TGI: > 100 µM
UACC-257 melanoma
  GI50: 2.76 µM
  TGI: 9.93 µM
HCT-116 colon
  GI50: 3.48 µM
  TGI: 13.4 µM
HOP-92 NSCLC
  GI50: 1.93 µM
  TGI: 8.22 µM
NCI-H226 lung
  GI50: 3.22 µM
  TGI: 24.3 µM
OVCAR-5 ovarian
  GI50: 7.84 µM
  TGI: 75.8 µM
A549 NSCLC
  GI50: 3.34 µM
  TGI: > 100 µM
NCI-H23 lung
  GI50: 2.83 µM
  TGI: 10.5 µM
TK-10 renal
  GI50: 3.77 µM
  TGI: 36.5 µM
SN12C renal
  GI50: 2.96 µM
  TGI: 11.8 µM
HT29 colon
  GI50: 4.85 µM
  TGI: 18.6 µM
BT-549 breast
  GI50: 2.99 µM
  TGI: 8.27 µM
SNB-75 CNS
  GI50: 6.07 µM
  TGI: 44 µM
MOLT-4 leukemia
  GI50: 3.05 µM
  TGI: 14.5 µM
SF-539 CNS
  GI50: 3.42 µM
  TGI: 12.8 µM
MDA-MB-435
  GI50: 3.26 µM
  TGI: 13.7 µM
SK-MEL-5 melanoma
  GI50: 1.88 µM
  TGI: 3.74 µM
K-562 leukemia
  GI50: 2.91 µM
  TGI: 24.7 µM
A498 renal
  GI50: 4.69 µM
  TGI: 25.9 µM
SK-MEL-28 melanoma
  GI50: 3.54 µM
  TGI: 16.9 µM
SNB-19 CNS
  GI50: 3.4 µM
  TGI: > 100 µM
HCT-15 colon
  GI50: 2.86 µM
  TGI: 18.3 µM
SW-620 colon
  GI50: 4.04 µM
  TGI: 35.4 µM
SF-268 CNS
  GI50: 3.22 µM
  TGI: 66.6 µM
OVCAR-8 ovarian
  GI50: 2.88 µM
  TGI: 17.5 µM
MALME-3M melanoma
  GI50: 2.81 µM
  TGI: 10.2 µM
KM12 colon
  GI50: 3.46 µM
  TGI: 15.6 µM
OVCAR-3 ovarian
  GI50: 2.99 µM
  TGI: 15.3 µM
NCI-H460 lung
  GI50: 3.42 µM
  TGI: 14.7 µM
SK-OV-3 ovarian
  GI50: 4.78 µM
  TGI: 38.5 µM
SR leukemia
  GI50: 2.51 µM
  TGI: 10.1 µM

— PubChem BioAssay (NCI)
